The values below come from US5399575A, “Pyridine compounds which have useful pharmaceutical activity” (Boehringer Mannheim GmbH, priority 1990, dated 1995).

The subject of this experiment is passive sensitised guinea pig lung parenchyma strips. As to the kind of experiment: Inhibition of the antigen-caused constriction of passive sensitised guinea pig lung parenchyma strips in vitro (organ bath). Format: cell-based. The settings on record: Cavia porcellus; concentration 10 μM; ovalbumin-caused constriction, 20 min pre-incubation at 37° C.; % reduction of constriction amplitude vs untreated control constrictions; read-out: superfusion inhibition (%). The method, then: Inhibition of the antigen-caused constriction of passive sensitised guinea pig lung parenchyma strips in vitro (organ bath)
For the in vitro investigation of the compounds according to the invention, the inhibition of the antigen-caused constriction of passive sensitised guinea pig lung parenchyma strips was measured, as described in the following:
Pribright white guinea pigs were stunned by a neck blow and exsanguinated. The lungs were rinsed substantially free of blood in situ with Krebs buffer, pH 7.4.
Subsequently, the lungs were removed, cut up into strips (about 20×4×4 mm) and the strips passively sensitised for one hour at room temperature with a 1:50 dilution of a homologous anti-ovalbumin antiserum and then washed 1× with Krebs buffer.
The antiserum was previously produced according to DAVIES in guinea pigs of the same strain by repeated injection of ovalbumin (2×crystallised) with addition of complete Freund's adjuvant.
Until its use, the antiserum was stored at -18° C. undiluted.
Subsequently, the lung strips were suspended individually on an isometric measurement sensor with an initial tension of 1.2 g.
Thereafter, the baths were filled with Krebs buffer and continously gassed at 37° C. with O2 (95%) and CO2 (5%). The constrictions of the lung strips were recorded on a recorder via an amplifier.
After 30 minutes acclimatisation phase, histamine control spasms were produced for the recognition of the reaction ability of the organ pieces, washed, subsequently the test substance pre-incubated at 37° C. for 20 minutes and thereafter the ovalbumin-caused constriction initiated.
The inhibition actions of the compounds according to the invention were expressed as percentage reduction of the constriction amplitude of the "samples with test substance" in relationship to the "untreated control constrictions".
`C(=Cc1ccc(OCCCCc2nnn[nH]2)cc1)c1ccncc1` [Example 15, 5-{4-{4-[2-(4-Pyridinyl)-ethenyl]-phenoxy}butyl}-1H-tetrazole]: the inhibition at 10 µM was determined as 56%.

As to `O=C(O)c1ccccc1SCCCCOc1ccc(C=Cc2ccncc2)cc1` [Example 12, 2-{4-{4-[2-(4-Pyridinyl)-ethenyl]-phenoxy}-butylthio}-benzoic acid], the inhibition at 10 µM came out at 42%.

As to `O=C(CCCCOc1ccccc1CCc1ccccn1)Nc1nnn[nH]1` [Example 18h, 5-{2-[2-(2-pyridinyl)-ethyl]-phenoxy}-valeric acid N-(1H-tetrazol-5-yl)-amide], the inhibition at 10 µM is 53%.

As to `O=C(O)c1ccccc1SCCCOc1ccc(CCc2ccncc2)cc1` [Example 14, 2-{3-{4-[2-(4-Pyridinyl)-ethyl]-phenoxy}-propylthio}-benzoic acid], the inhibition at 10 µM is 56%.

Take `O=C(CCCCOc1ccccc1C=Cc1ccccn1)Nc1nnn[nH]1` [Example 18c, 5-{2-[2-(2-pyridinyl)-ethenyl]-phenoxy}-valeric acid N-(1H-tetrazol-5-yl)-amide]: the inhibition at 10 µM stood at 33%.

Take `O=C(CCCOc1ccc(CCc2ccncc2)cc1)Nc1nnn[nH]1` [Example 18b]: the inhibition at 10 µM was 32%.

For orientation: inhibition means the change of the read-out against control, counted positive when it falls.
